One test concerns tyrosinase. In words: Tyrosinase zymography. The class given is biochemical, mushroom. To be noted: L-DOPA staining, compared to untreated control.
Test [1] has as its target T1, mushroom tyrosinase (Agaricus bisporus, UniProt C7FF04). Nature of the test: Mushroom tyrosinase inhibition assay. Format: biochemical. The conditions noted are these: for inhibition at 30 µM: read-out: percent inhibition.
The target in test [2] is T1, mushroom tyrosinase. To be noted: cited from earlier work.

Molecules are shown by their SMILES. Where two headings read alike, the source gives them in different places.

These results are taken from publication PMC6635827 (Drug Design, Development and Therapy, 2019).

T1 sequence (C7FF04 1-392): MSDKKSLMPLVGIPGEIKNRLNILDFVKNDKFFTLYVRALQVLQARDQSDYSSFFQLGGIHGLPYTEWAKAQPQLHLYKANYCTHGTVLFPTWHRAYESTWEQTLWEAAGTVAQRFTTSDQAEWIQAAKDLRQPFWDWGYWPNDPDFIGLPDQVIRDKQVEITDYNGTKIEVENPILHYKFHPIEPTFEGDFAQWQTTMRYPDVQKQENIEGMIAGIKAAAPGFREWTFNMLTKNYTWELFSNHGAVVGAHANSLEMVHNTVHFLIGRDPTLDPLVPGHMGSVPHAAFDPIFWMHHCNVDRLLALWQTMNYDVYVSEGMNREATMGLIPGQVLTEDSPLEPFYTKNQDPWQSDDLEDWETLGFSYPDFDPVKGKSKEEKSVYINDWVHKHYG

Regarding `COc1ccc(N=Nc2c(N)nc(N)nc2N)cc1` [Compound 2d, 5-((4-methoxyphenyl)diazenyl) pyrimidine-2,4,6-triamine], the “band intensity on zymogram (inhibitory effect on tyrosinase activity)” value in the test on tyrosinase is reported as “minimal inhibitory effect”.

As for `COc1ccc(N=Nc2c(N)nc(N)nc2Cl)cc1` [Compound 1e, 6-chloro-5-((4-methoxyphenyl)diazenyl) pyrimidine-2,4-diamine], on mushroom tyrosinase [1], the inhibition at 30 µM turned out to be 55.1%.

`O=c1cc[nH]c(=S)[nH]1` [thiouracil]: at mushroom tyrosinase [2], the IC50 was 128 µM and the Inhibition type result was “noncompetitive inhibitors”.

Compound `CC(=O)Nc1ccc(N=Nc2c(N)nc(N)nc2Cl)cc1` [Compound 1d, N-(4-((2,4-diamino-6-chloropyrimidin-5-yl)diazenyl)phenyl) acetamide] had an IC50 on mushroom tyrosinase [1] of 24.5 µM. Also, the “band intensity on zymogram (inhibitory effect on tyrosinase activity)” value in the test on tyrosinase is “lightest bands”.

In the case of `Nc1nc(N)c(N=Nc2ccccc2[N+](=O)[O-])c(Cl)n1` [Compound 1a, 6-chloro-5-((2-nitrophenyl)diazenyl) pyrimidine-2,4-diamine], the “band intensity on zymogram (inhibitory effect on tyrosinase activity)” value in the test with tyrosinase is on record as “lightest bands”.

As for `Cc1cc(=O)[nH]c(=S)[nH]1` [methylthiouracil], on mushroom tyrosinase [2], the IC50 is 142 µM and the Inhibition type result is listed as “noncompetitive inhibitors”.

In the case of `Nc1nc(N)c(N=Nc2ccc([N+](=O)[O-])cc2)c(Cl)n1` [Compound 1b, 6-chloro-5-((4-nitrophenyl)diazenyl) pyrimidine-2,4-diamine], the inhibition at 30 µM on mushroom tyrosinase [1] was determined as 23.7%.
